{
  "source": "patent US20210338767A1",
  "about": "“METHODS OF SELECTING TREATMENT FOR CXCR4-ASSOCIATED CANCER” (BioLineRx Ltd., priority 2018, published 2021)",
  "key": {"CXCR4 receptor": {"target": "T1, CXCR4 receptor (Homo sapiens, UniProt P61073)", "T1 construct": "Fold change in level of occupied CXCR4 receptor prior and post treatment with low (0.5, 0.75 and 1 mg/kg) and high; endogenous in cells", "T1 sequence (P61073 whole entry)": "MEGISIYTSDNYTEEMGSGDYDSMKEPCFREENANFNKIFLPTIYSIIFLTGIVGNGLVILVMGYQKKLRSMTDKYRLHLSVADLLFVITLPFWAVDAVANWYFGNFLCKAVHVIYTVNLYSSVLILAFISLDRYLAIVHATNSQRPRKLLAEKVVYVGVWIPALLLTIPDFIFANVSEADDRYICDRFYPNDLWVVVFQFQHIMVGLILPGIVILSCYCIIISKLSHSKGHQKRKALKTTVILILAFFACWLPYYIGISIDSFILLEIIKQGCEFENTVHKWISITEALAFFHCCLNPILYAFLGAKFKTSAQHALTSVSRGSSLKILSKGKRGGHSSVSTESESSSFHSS", "assay": "Pharmacodynamic assessment: CXCR4 receptor occupancy prior and post BL-8040 treatment", "format": "in vivo", "procedure": "(§1) FIGS. 3A-D show BL-8040 Mediated CXCR4 Receptor Occupancy and Induce Mobilization and Differentiation of AML Blasts. (A) Fold change in level of occupied CXCR4 receptor prior and post treatment with low (0.5, 0.75 and 1 mg/kg) and high (1.25, 1.5 and 2 mg/kg) BL-8040 dose levels. (B) Fold change in AML blast counts pre and post BL-8040 and BL-8040+HiDAC treatments in responders and non-responders. (C) Fold change in the level of AML blasts in the BM following BL-8040 treatment (D) Change in levels of BM Granulocytes following 2 days of BL-8040 treatment.\nReceptor occupancy is typically assessed using two monoclonal antibodies (mAbs) binding to two different epitopes of the CXCR4 antigen. […] It will be appreciated that receptor occupancy can also be determined by using an antibody which binds peptide-free CXCR4 prior to and post contacting with the peptide (e.g., 12G5, supra).\nAccording to a specific embodiment, the receptor occupancy is determined as follows: Percent or number of CXCR4 expressing cells (e.g., using 12G5 Ab) post drug (e.g., SEQ ID NO: 1) treatment out of percent or number of CXCR4 expressing cells (e.g., using 12G5 Ab) prior to drug (e.g., SEQ ID NO: 1) treatment *100, such a calculation provides receptor occupancy per cell."}, "[1]": {"test_system": "relapsed or refractory AML", "assay": "Phase 2a study of BL-8040 combined with high dose Ara-C (HiDAC) in relapsed/refractory AML: efficacy", "format": "in vivo, human", "source_text": "Subjects were accrued in a conventional 3+3 design.\nFollow-up period started after completion of Ara-C chemotherapy and continued for up to 6 weeks after initiation of salvage chemotherapy with Ara-C, i.e., up to Day 44. Subjects participating in the expansion phase were followed for up to 5 years after completion of the follow-up period. Subjects were contacted by telephone at approximately 3-month intervals (±1 month) after the end of the follow-up period to determine AML status and survival."}, "AML blasts": {"test_system": "AML blasts", "assay": "Pharmacodynamic assessment: mobilization and differentiation of AML blasts (peripheral blood, bone marrow)", "format": "in vivo, human", "procedure": "as §1"}, "[2]": {"test_system": "malignant cells of hematopoietic origin including AML", "conditions": "cited from earlier work"}, "[3]": {"conditions": "all patients at all BL-8040 dose levels (N=42)"}, "[4]": {"conditions": "responding subjects at the 1.5 mg/kg dose (9/23 with CR/CRi)"}, "[5]": {"conditions": "responding subjects within the 1.5 mg/kg dose group"}, "[6]": {"conditions": "subjects receiving 1.5 mg/kg (N=23)"}, "[7]": {"conditions": "responding patients following BL-8040 treatment vs baseline, compared to non-responders"}},
  "note": "Positions of bridges follow the written chain, without caps; N, C: chain ends. Non-standard residues stand in square brackets, D forms with d. *: point of attachment. Benzoyl(4-F) = O=C(c1ccc(F)cc1)*; Cit = NC(=O)NCCC[C@H](N)C(=O)O",
  "data": [
    {"substance": "4F-benzoyl-Arg-Arg-Nal-Cys-Tyr-Cit-Lys-DLys-Pro-Tyr-Arg-Cit-Cys-Arg-NH2 ({Benzoyl(4-F)}-RR[Nal]CY[Cit]K[dK]PYR[Cit]CR-NH2; disulfide 4-13 (inferred)) [BL-8040]", "values": [
      {"measurement": "CXCR4 receptor occupancy", "setting": "CXCR4 receptor; high BL-8040 dose levels (1.25, 1.5 and 2 mg/kg)", "result": "demonstrated CXCR4 receptor occupancy"},
      {"measurement": "CXCR4 receptor occupancy", "setting": "CXCR4 receptor; low BL-8040 dose levels (0.5, 0.75 and 1 mg/kg)", "result": "insignificant changes in receptor occupancy"},
      {"measurement": "1-year survival rate", "setting": "[1]; [3]", "result": 37.2, "unit": "%"},
      {"measurement": "2-years survival rate", "setting": "[1]; [3]", "result": 20, "unit": "%"},
      {"measurement": "3-years survival rate", "setting": "[1]; [3]", "result": 16, "unit": "%"},
      {"measurement": "median overall survival (mOS)", "setting": "[1]; all patients at all BL-8040 dose levels (N=42), with HiDAC", "result": 9.1, "unit": "months"},
      {"measurement": "composite CR rate (CR and CRi)", "setting": "[1]; expansion group that received 1.5 mg/kg BL-8040 (9/23), with HiDAC", "result": 39, "unit": "%"},
      {"measurement": "composite CR rate (CR and CRi)", "setting": "[1]; refractory patients (9/19), with HiDAC", "result": 47, "unit": "%"},
      {"measurement": "composite CR rate (CR and CRi)", "setting": "[1]; relapsed patients (3/23), with HiDAC", "result": 13, "unit": "%"},
      {"measurement": "1-year survival rate", "setting": "[1]; [4]", "result": 66.7, "unit": "%"},
      {"measurement": "2-years survival rate", "setting": "[1]; [4]", "result": 44.4, "unit": "%"},
      {"measurement": "3-years survival rate", "setting": "[1]; [4]", "result": 44.4, "unit": "%"},
      {"measurement": "median overall survival (mOS)", "setting": "[1]; [4]", "result": 21.8, "unit": "months"},
      {"measurement": "EFS at 1 year", "setting": "[1]; [5]", "result": 55.6, "unit": "%"},
      {"measurement": "EFS at 2 years", "setting": "[1]; [5]", "result": 22.2, "unit": "%"},
      {"measurement": "EFS at 3 years", "setting": "[1]; [5]", "result": 22.2, "unit": "%"},
      {"measurement": "median duration of response (mDOR)", "setting": "[1]; [5]", "result": 17.4, "unit": "months"},
      {"measurement": "1-year survival rate", "setting": "[1]; [6]", "result": 38.1, "unit": "%"},
      {"measurement": "2-year survival rate", "setting": "[1]; [6]", "result": 23.8, "unit": "%"},
      {"measurement": "3-year survival rate", "setting": "[1]; [6]", "result": 23.8, "unit": "%"},
      {"measurement": "median overall survival (mOS)", "setting": "[1]; [6]", "result": 10.7, "unit": "months"},
      {"measurement": "levels of granulocytes in BM", "setting": "AML blasts; responders vs non-responders relative to screening, following BL-8040 treatment", "result": "Statistically significant increased levels of granulocytes"},
      {"measurement": "leukemic blasts in BM", "setting": "AML blasts; [7]", "result": "decreased numbers of leukemic blasts in BM"},
      {"measurement": "mobilized leukemic blasts in peripheral blood", "setting": "AML blasts; [7]", "result": "statistically significant increased numbers of mobilized leukemic blasts"},
      {"measurement": "cytotoxicity toward malignant cells", "setting": "[2]", "result": "CXCR4-dependent preferential cytotoxicity"}
    ]}
  ]
}
